# Measurements as given in patent US10167296B2, “Sulfoximine substituted quinazolines for pharmaceutical compositions” (EVOTEC INTERNATIONAL GMBH, priority 2014, dated 2019).
# Columns and labels:
# [1] = tested on: MNK2 (MNK2a or MNK2b) or MNK1; conditions: cell culture cells transfected with MNK2 (MNK2a or MNK2b) or MNK1; cited from earlier work
# [2] = target: MNK2a (pre-activated GST-MNK2a) (Homo sapiens (Human), UniProt Q9HBH9); test: MNK2a in vitro kinase assay (assay 1), ADP-Glo; format: biochemical; conditions: read-out: Mnk2 IC50
# MNK2a (pre-activated GST-MNK2a), sequence (Q9HBH9 whole entry): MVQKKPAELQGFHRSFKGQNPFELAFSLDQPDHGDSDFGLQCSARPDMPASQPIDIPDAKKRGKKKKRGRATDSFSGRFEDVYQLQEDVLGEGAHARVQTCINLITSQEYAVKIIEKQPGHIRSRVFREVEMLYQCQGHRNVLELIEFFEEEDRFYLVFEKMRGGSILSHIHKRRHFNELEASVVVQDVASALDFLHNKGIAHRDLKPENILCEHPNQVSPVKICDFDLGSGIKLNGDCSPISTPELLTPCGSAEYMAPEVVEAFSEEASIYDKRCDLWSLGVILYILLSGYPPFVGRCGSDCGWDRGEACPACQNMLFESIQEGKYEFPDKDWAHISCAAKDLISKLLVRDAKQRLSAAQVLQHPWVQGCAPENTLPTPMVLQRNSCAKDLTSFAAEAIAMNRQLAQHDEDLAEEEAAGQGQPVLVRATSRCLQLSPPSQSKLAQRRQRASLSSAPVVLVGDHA
# Method: A. MNK2a In Vitro Kinase Assay (Assay 1)
# The inhibition of kinase activity of MNK2a was assessed using pre-activated GST-MNK2a. The white, 384-well OptiPlate F plates were purchased from PerkinElmer. The ADP-Glo Kinase Assay (including ultra pure ATP) was purchased from Promega (V9103). Activated MNK2a was obtained as described in WO2011/104340. […] ID No. 5 of WO 2011/104340 by the C-terminal —CONH2 group, was purchased from Thermo Fisher Scientific. All other materials were of highest grade commercially available. Compounds are tested in either serial dilutions or single dose concentrations. The compound stock solutions are 10 mM in 100% DMSO The serial compound dilutions are prepared in 100% DMSO followed by 1:27.3 intermediate dilution in assay buffer. The final DMSO concentration in assay will be <3%.
# In the 384-well plates 3 μl of test compound from the intermediate dilution is mixed with 4 μl of the activated MNK2 enzyme (final concentration of 10 nM) and 4 μl of the peptide (final concentration of 25 μM)/ultra pure ATP (final concentration of 20 μM), all dissolved in assay buffer. This step is followed by an incubation time of 90 min, then 10 μl of ADP Glo reagent are added, followed by 40 min of incubation. Then 20 μl of kinase detection reagent are admixed. The plates are sealed and after an incubation period of 30 min, the luminescence signal is measured in an Envision reader to determine the amount of produced ADP. All incubation steps are performed at room temperature.
# The assay buffer consists of 20 mM HEPES, 2 mM DTT, 0.01% BSA, 20 mM MgCl2 and 0.1% Pluronic F-127.
# The luminescent signal generated is proportional to the ADP concentration produced and is correlated with activated MNK2 activity. The analysis of the data is performed by the calculation of the percentage of ATP consumption of activated MNK2 in the presence of the test compound compared to the consumption of ATP in the presence of activated MNK2 without compound. (RLU(sample)−RLU(low control))*100/(RLU(high value)−RLU(low control))
# [RLU=Relative Luminescence Units]
# Values of more than 100% CTL are normally related to compound/sample specific physico-chemical properties (e.g. solubility, light absorbance, fluorescence).
# IC50 values based on dose response curves are calculated with the AssayExplorer software.
# [3] = target: MNK1a (pre-activated GST-MNK1a) (Homo sapiens (Human), UniProt Q9BUB5); test: MNK1 in vitro kinase assay (assay 2), Z'-LYTE; format: biochemical
# MNK1a (pre-activated GST-MNK1a), sequence (Q9BUB5 other isoform, or with tags, fused parts or gaps): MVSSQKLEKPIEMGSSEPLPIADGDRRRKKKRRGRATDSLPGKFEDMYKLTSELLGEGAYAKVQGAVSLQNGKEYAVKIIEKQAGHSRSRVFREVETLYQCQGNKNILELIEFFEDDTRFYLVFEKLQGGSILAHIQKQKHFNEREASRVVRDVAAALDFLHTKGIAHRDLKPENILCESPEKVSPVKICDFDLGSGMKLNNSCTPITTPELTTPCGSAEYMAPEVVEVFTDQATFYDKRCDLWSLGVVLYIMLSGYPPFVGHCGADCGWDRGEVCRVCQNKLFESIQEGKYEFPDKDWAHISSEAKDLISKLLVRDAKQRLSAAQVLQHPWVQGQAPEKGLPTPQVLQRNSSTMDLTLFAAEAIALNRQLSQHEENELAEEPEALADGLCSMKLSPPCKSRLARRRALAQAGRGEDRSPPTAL
# Source text: B. MNK1 In Vitro Kinase Assay (Assay 2)
# MNK1 Data can be obtained from the MNK1 Z′-LYTE® assay. The MNK1 Z′-LYTE® screening protocol and assay conditions are also described on www.invitrogen.com.
# The assay is described as follows:
# The Z′-LYTE® biochemical assay employs a fluorescence-based, coupled-enzyme format and is based on the differential sensitivity of phosphorylated and non-phosphorylated peptides to proteolytic cleavage. The peptide substrate is labeled with two fluorophores—one at each end—that make up a FRET pair.
# In the primary reaction, the kinase transfers the gamma-phosphate of ATP to a single tyrosine, serine or threonine residue in a synthetic FRET-peptide. In the secondary reaction, a site-specific protease recognizes and cleaves non-phosphorylated FRET-peptides. Phosphorylation of FRET-peptides suppresses cleavage by the Development Reagent. Cleavage disrupts FRET between the donor (i.e., coumarin) and acceptor (i.e., fluorescein) fluorophores on the FRET-peptide, whereas uncleaved, phosphorylated FRET-peptides maintain FRET. A ratiometric method, which calculates the ratio (the Emission Ratio) of donor emission to acceptor emission after excitation of the donor fluorophore at 400 nm, is used to quantitate reaction progress, as shown in the equation below. Emission Ratio=Coumarin Emission(445 nm)/Fluorescein Emission(520 nm)
# The inhibition of kinase activity of MNK1a was assessed using pre-activated GST-MNK1a. The 2×MKNK1 (MNK1) mixture is prepared in 50 mM HEPES pH 7.5, 0.01% BRIJ-35, 10 mM MgCl2, 4 mM MnCl2, 1 mM EGTA, 2 mM DTT. The final 10 μL Kinase Reaction consists of 13.5-54 ng MKNK1 (MNK1) and 2 μM Ser/Thr 07 in 50 mM HEPES pH 7.5, 0.01% BRIJ-35, 10 mM MgCl2, 2 mM MnCl2, 1 mM EGTA, 1 mM DTT. After the 1 hour Kinase Reaction incubation, 5 μL of a 1:32768 dilution of Development Reagent A is added.
# The Test Compounds are screened in 1% DMSO (final) in the well.
# All Peptide/Kinase Mixtures are diluted to a 2×working concentration in the MNK1 Kinase Buffer.
# All ATP Solutions are diluted to a 4×working concentration in Kinase Buffer (50 mM HEPES pH 7.5, 0.01% BRIJ-35, 10 mM MgCl2, 1 mM EGTA).
# Development Reagent Solution:
# The Development Reagent is diluted in Development Buffer
# Bar-coded Corning, low volume NBS, 384-well plate (Corning Cat. #3676)
# 1. 2.5 μL—4×Test Compound
# 2. 5 μL—2×Peptide/Kinase Mixture
# 5. 60-minute Kinase Reaction incubation at room temperature
# 6. 5 μL—Development Reagent Solution
# 8. 60-minute Development Reaction incubation at room temperature
# 9. Read on fluorescence plate reader and analyze the data
# The following equations are used for each set of data points:
# Correction for Background Fluorescence: FISample−FITCFI Ctl Emission Ratio (using values corrected for background fluorescence):Coumarin Emission (445 nm)/Fluorescein Emission (520 nm)
# % Phosphorylation (% Phos): 1−((Emission Ratio×F100%)−C100%)/((C0%−C100%)+[Emission Ratio×(F100%−F0%)])*100
# % Inhibition: 1−(% PhosSample/% Phos0% Inhibition Ctl)*100 FI=Fluorescence Intensity C100%=Average Coumarin emission signal of the 100% Phos. Control C0%=Average Coumarin emission signal of the 0% Phos. Control F100%=Average Fluorescein emission signal of the 100% Phos. Control F0%=Average Fluorescein emission signal of the 0% Phos. Control
# SelectScreen® Kinase Profiling Service uses XLfit from IDBS. The dose response curve is curve fit to model number 205 (sigmoidal dose-response model).
SMILES,reduction of phosphorylated elF4E [1],IC50 [2] [nM],IC50 [3] [nM]
Nc1ncnc2n[nH]c(Nc3ccc(F)cc3)c12 [CGP57380],strong reduction,,
Cc1c(OCC2CC2)c(N=S(C)(C)=O)cc2ncnc(Nc3ccc(F)cc3O[C@H](C)C(F)(F)F)c12 [Example 3.01],,3.3,180
COCCOc1c(N=S(C)(C)=O)cc2ncnc(Nc3ccc(F)cc3O[C@H](C)C(F)(F)F)c2c1C [Example 3.02],,2.6,113
Cc1c(OC(C)C)c(N=S(C)(C)=O)cc2ncnc(Nc3ccc(F)cc3O[C@H](C)C(F)(F)F)c12 [Example 3.03],,6.5,282
Cc1c(OC2CCOC2)c(N=S(C)(C)=O)cc2ncnc(Nc3ccc(F)cc3O[C@H](C)C(F)(F)F)c12 (stereo partly drawn) [Example 3.04],,2.1,118
